In PubChem BioAssay (NCI):
Values joined by “and” are separate entries in the source; they are usually repeats but may differ in a detail not shown here. Equal values may be shown once.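 48-hour exposure; five concentrations; linearly interpolated endpoints. GI50 marks 50% less growth. At the TGI there is no net growth.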

Columns and labels:
Assay in all cases: DTP human tumour cell line panel, 48 h
MDA-MB-231 breast = tested on: MDA-MB-231 breast
MALME-3M melanoma = tested on: MALME-3M melanoma
TK-10 renal = tested on: TK-10 renal
HOP-62 NSCLC = tested on: HOP-62 NSCLC
DU-145 prostate = tested on: DU-145 prostate
KM12 colon = tested on: KM12 colon
HOP-92 NSCLC = tested on: HOP-92 NSCLC
A549 NSCLC = tested on: A549 NSCLC
RXF 393 renal = tested on: RXF 393 renal
OVCAR-5 ovarian = tested on: OVCAR-5 ovarian

Clc1nc(Cl)c2ncn(Cc3cccc(Cn4cnc5c(Cl)nc(Cl)nc54)c3)c2n1
GI50 (MDA-MB-231 breast): 2.66 µM
TGI (MDA-MB-231 breast): 7 µM
GI50 (MALME-3M melanoma): 3.11 µM
TGI (MALME-3M melanoma): 9.84 µM
GI50 (TK-10 renal): 2.46 µM
TGI (TK-10 renal): 7.31 µM
GI50 (HOP-62 NSCLC): 4.97 µM
TGI (HOP-62 NSCLC): 18 µM
GI50 (DU-145 prostate): 1.72 µM
TGI (DU-145 prostate): 3.09 µM
GI50 (KM12 colon): 2.87 µM
TGI (KM12 colon): 8.95 µM
GI50 (HOP-92 NSCLC): 6.13 µM
TGI (HOP-92 NSCLC): 22.4 µM
GI50 (A549 NSCLC): 11.3 µM
TGI (A549 NSCLC): 26.3 µM
GI50 (RXF 393 renal): 1.92 µM
TGI (RXF 393 renal): 3.72 µM
GI50 (OVCAR-5 ovarian): 15 µM
TGI (OVCAR-5 ovarian): 28.8 µM

COC(=O)CCc1c[nH]c2ccc(N(CCCl)CCCl)cc12
GI50 (MDA-MB-231 breast): 20.1 µM
TGI (MDA-MB-231 breast): > 92.4 µM
GI50 (MALME-3M melanoma): 5.95 µM
TGI (MALME-3M melanoma): 30.1 µM
GI50 (TK-10 renal): 4.82 µM
TGI (TK-10 renal): 66 µM
GI50 (HOP-62 NSCLC): 1.04 µM
TGI (HOP-62 NSCLC): 16.5 µM
GI50 (DU-145 prostate): 2.27 µM
TGI (DU-145 prostate): > 100 µM
GI50 (KM12 colon): 10.6 µM
TGI (KM12 colon): 36.1 µM
GI50 (HOP-92 NSCLC): 2.24 µM
TGI (HOP-92 NSCLC): 28.6 µM
GI50 (A549 NSCLC): 1.51 µM
TGI (A549 NSCLC): > 100 µM
GI50 (RXF 393 renal): 1.64 µM
TGI (RXF 393 renal): 4.19 µM
GI50 (OVCAR-5 ovarian): 5.32 µM
TGI (OVCAR-5 ovarian): 46.1 µM

[Cl][Hg][Cl]
GI50 (MDA-MB-231 breast): 17.1 µM
TGI (MDA-MB-231 breast): 31.7 µM
GI50 (MALME-3M melanoma): 9.16 µM
TGI (MALME-3M melanoma): 22.1 µM
GI50 (TK-10 renal): 17.5 µM
TGI (TK-10 renal): 31.5 µM
GI50 (HOP-62 NSCLC): 16.7 µM
TGI (HOP-62 NSCLC): 31.3 µM
GI50 (DU-145 prostate): 20.1 µM
TGI (DU-145 prostate): 34.8 µM
GI50 (KM12 colon): 16.8 µM
TGI (KM12 colon): 31.6 µM
GI50 (HOP-92 NSCLC): 17.3 µM
TGI (HOP-92 NSCLC): 32.7 µM
GI50 (A549 NSCLC): 20.2 µM
TGI (A549 NSCLC): 39.3 µM
GI50 (RXF 393 renal): 18.2 µM
TGI (RXF 393 renal): 32.6 µM
GI50 (OVCAR-5 ovarian): 19.3 µM
TGI (OVCAR-5 ovarian): 33.6 µM

CN(C)CCCOc1ccc(-c2ccc3ncc4c(c3c2)n(C2CCOCC2)c(=O)n4C)cn1
GI50 (MDA-MB-231 breast): 1.31 µM
TGI (MDA-MB-231 breast): 11.7 µM
GI50 (MALME-3M melanoma): 0.354 µM
TGI (MALME-3M melanoma): 3.41 µM
GI50 (TK-10 renal): 0.286 µM
TGI (TK-10 renal): 2.91 µM
GI50 (HOP-62 NSCLC): 1.87 µM
TGI (HOP-62 NSCLC): 12.5 µM
GI50 (DU-145 prostate): 2.37 µM
TGI (DU-145 prostate): 17.2 µM
GI50 (KM12 colon): 3.16 µM
TGI (KM12 colon): 16.4 µM
GI50 (HOP-92 NSCLC): 0.218 µM
TGI (HOP-92 NSCLC): 1.61 µM
GI50 (A549 NSCLC): 2.36 µM
TGI (A549 NSCLC): 12.3 µM
GI50 (RXF 393 renal): 0.838 µM
TGI (RXF 393 renal): 4.85 µM
GI50 (OVCAR-5 ovarian): 1.49 µM
TGI (OVCAR-5 ovarian): 30.4 µM

C=C1C(=O)O[C@@H]2C[C@@H](C)[C@@H]3C=CC(=O)[C@@]3(C)[C@@H](OC(=O)CC(=O)O[C@H]3[C@@H]4C(=C)C(=O)O[C@@H]4C[C@@H](C)[C@@H]4C=CC(=O)[C@]43C)[C@H]12
TGI (MDA-MB-231 breast): 1.32 µM
TGI (MALME-3M melanoma): 0.0368 µM
TGI (TK-10 renal): 0.47 µM
TGI (HOP-62 NSCLC): 1.18 µM
TGI (DU-145 prostate): 12.9 µM
TGI (KM12 colon): 0.16 µM
TGI (HOP-92 NSCLC): 0.0746 µM
TGI (A549 NSCLC): 2.46 µM
TGI (RXF 393 renal): 0.0258 µM
TGI (OVCAR-5 ovarian): 0.39 µM

COc1cc(/C=C2\C(=O)Nc3cc(C)c(O)cc32)cc(OC)c1OC
GI50 (MDA-MB-231 breast): 3.25 µM
TGI (MDA-MB-231 breast): 23.1 µM
GI50 (MALME-3M melanoma): 0.454 µM
TGI (MALME-3M melanoma): 9.11 µM
GI50 (TK-10 renal): 12.8 µM
TGI (TK-10 renal): 40.4 µM
GI50 (HOP-62 NSCLC): 11.7 µM
TGI (HOP-62 NSCLC): 37.4 µM
GI50 (DU-145 prostate): 3.67 µM
TGI (DU-145 prostate): 17.1 µM
GI50 (KM12 colon): 2.62 µM
TGI (KM12 colon): 11.4 µM
GI50 (HOP-92 NSCLC): 5.61 µM
TGI (HOP-92 NSCLC): > 100 µM
GI50 (A549 NSCLC): 6.13 µM
TGI (A549 NSCLC): > 79.6 µM
GI50 (RXF 393 renal): 3.46 µM
TGI (RXF 393 renal): 13.4 µM
GI50 (OVCAR-5 ovarian): 13.5 µM
TGI (OVCAR-5 ovarian): 30.4 µM

FC(F)c1nc2ccccc2n1-c1nc(N2CCOCC2)nc(N2CCOCC2)n1
GI50 (MDA-MB-231 breast): 0.448 µM and 2.13 µM
GI50 (MALME-3M melanoma): 0.178 µM and 0.16 µM
TGI (MALME-3M melanoma): 1.65 µM and 0.919 µM
GI50 (TK-10 renal): 0.129 µM and 0.205 µM
TGI (TK-10 renal): 0.907 µM and 1.58 µM
GI50 (HOP-62 NSCLC): 0.495 µM and 1.1 µM
TGI (HOP-62 NSCLC): 5.36 µM and 15.7 µM
GI50 (DU-145 prostate): 0.42 µM and 0.432 µM
TGI (DU-145 prostate): > 100 µM
GI50 (KM12 colon): 0.739 µM and 0.969 µM
TGI (KM12 colon): > 100 µM
GI50 (HOP-92 NSCLC): 0.0486 µM and 0.0548 µM
TGI (HOP-92 NSCLC): 0.382 µM and 0.551 µM
GI50 (A549 NSCLC): 0.518 µM and 0.584 µM
TGI (A549 NSCLC): > 100 µM
GI50 (RXF 393 renal): 0.0964 µM and 0.138 µM
TGI (RXF 393 renal): 0.625 µM and 0.674 µM
GI50 (OVCAR-5 ovarian): 0.329 µM and 0.447 µM
TGI (OVCAR-5 ovarian): > 100 µM

CCOC(=O)c1sc(-c2ccc(OS(=O)(=O)c3ccc(Br)s3)c(C=O)c2)nc1C
GI50 (MDA-MB-231 breast): 2.75 µM
TGI (MDA-MB-231 breast): 10.1 µM
GI50 (MALME-3M melanoma): 4.08 µM
TGI (MALME-3M melanoma): 18.1 µM
GI50 (TK-10 renal): 2.83 µM
TGI (TK-10 renal): 8.96 µM
GI50 (HOP-62 NSCLC): 3.3 µM
TGI (HOP-62 NSCLC): 12.5 µM
GI50 (DU-145 prostate): 6.81 µM
TGI (DU-145 prostate): 24.8 µM
GI50 (KM12 colon): 3.36 µM
TGI (KM12 colon): 11.6 µM
GI50 (HOP-92 NSCLC): 2.08 µM
TGI (HOP-92 NSCLC): 6.87 µM
GI50 (A549 NSCLC): 22.7 µM
TGI (A549 NSCLC): > 100 µM
GI50 (RXF 393 renal): 2.81 µM
TGI (RXF 393 renal): 13.5 µM
GI50 (OVCAR-5 ovarian): 10 µM
TGI (OVCAR-5 ovarian): 26.3 µM

Fc1ccc2[nH]cc(-c3nonc3-c3c[nH]c4ccc(Br)cc34)c2c1
GI50 (MDA-MB-231 breast): 1.3 µM
TGI (MDA-MB-231 breast): 2.88 µM
GI50 (MALME-3M melanoma): 2.34 µM
TGI (MALME-3M melanoma): 7.85 µM
GI50 (TK-10 renal): 3.04 µM
TGI (TK-10 renal): 6.63 µM
GI50 (HOP-62 NSCLC): 1.89 µM
TGI (HOP-62 NSCLC): 5.07 µM
GI50 (DU-145 prostate): 3.57 µM
TGI (DU-145 prostate): 13.2 µM
GI50 (KM12 colon): 1.77 µM
TGI (KM12 colon): 4.05 µM
GI50 (HOP-92 NSCLC): 1.97 µM
TGI (HOP-92 NSCLC): 5.52 µM
GI50 (A549 NSCLC): 2.87 µM
TGI (A549 NSCLC): 7.99 µM
GI50 (RXF 393 renal): 2.85 µM
TGI (RXF 393 renal): 8.75 µM
GI50 (OVCAR-5 ovarian): 2.15 µM
TGI (OVCAR-5 ovarian): 5.8 µM

O=C(CC(c1ccccc1)c1c(O)c2ccccc2oc1=O)c1ccccc1 (centres undefined)
TGI (MDA-MB-231 breast): > 100 µM
TGI (MALME-3M melanoma): > 100 µM
TGI (TK-10 renal): > 100 µM
TGI (HOP-62 NSCLC): > 100 µM
TGI (DU-145 prostate): > 100 µM
TGI (KM12 colon): > 100 µM
TGI (HOP-92 NSCLC): > 86.5 µM
TGI (A549 NSCLC): > 100 µM
TGI (RXF 393 renal): > 100 µM
TGI (OVCAR-5 ovarian): > 100 µM
